Reference: patent US8883758B2, “3,5-disubstituted and 3,5,7-trisubstituted-3H-oxazolo and 3H-thiazolo[4,5-d]pyrimidin-2-one compounds and prodrugs thereof” (Anadys Pharmaceuticals, Inc., priority 2004, dated 2014)

System: fresh cynomolgus monkey hepatocytes
Assay: Metabolism of Formula I prodrugs to 6-oxy metabolites in fresh cynomolgus monkey hepatocytes (LC/MS/MS)
Type: in vitro ADME
Protocol: A study was undertaken to evaluate the metabolic stability of Formula I compounds 14, 15, 13, 114, 30, 103, 67, 65, and 76 in the presence of fresh cynomolgus monkey hepatocytes and monitor the formation of 6-oxy metabolites, i.e., Formula II compounds and other compounds of the invention. For comparison, the metabolic stability of famciclovir was also assessed.
Fresh cynomolgus monkey hepatocyte suspension (Lot #: Cy141) was purchased from CellzDirect (Tucson, Ariz.). Hepatocyte Incubation Medium (serum-free, sterile) was purchased from In Vitro Technologies (Baltimore, Md.).
The cynomolgus monkey hepatocyte suspension was prepared from fresh cynomolgus monkey hepatocytes in hepatocyte incubation medium at the concentration of 1.25 million cells/mL. The final incubation concentration (after test article addition) was 1.0 million cells/mL.
Existing 100 mM stock solutions in DMSO were used. The concentrations of the test articles were checked using UV-vis microplate reader. Correction coefficients were determined using the absorbance of a freshly prepared DMSO stock of 122.
Reaction suspensions were prepared in removable 96-well tubes, each containing 320 μL of fresh cynomolgus monkey hepatocyte suspension at the density of 1.25 million cells per mL and 40 μL of hepatocyte incubation medium. The above mixtures were pre-incubated open at 37° C., 95% humidity and 5% CO2 for 30 minutes. Reactions were initiated by the addition of 40 μL of test article at 10× concentration to each tube to achieve the final concentrations of 50 μM for the test article(s) and 1 million/mL cell density. The reaction suspension in each tube was mixed by inverting the tube several times. Aliquots of 50 μL from each reaction suspension were distributed into six additional removable 96-well tubes (one tube per time point taken at 15, 30, 45, 60, 90, and 120 minutes). The open tubes were incubated at 37° C. under 95% humidity and 5% CO2.
At predetermined time points, reactions were terminated by the addition of 150 μL of the stop solution to each tube containing 50 μL of the reaction suspension. The composition of the stop solution was the following: 15 mL of acetonitrile (containing 1 μg/mL nebularine as an internal standard and 0.1% formic acid) combined with 1 mL water.
The calibration curves were prepared in the following way. To 80 μL of cell suspension (at the cell density of 1.25 million/mL) 10 μL of hepatocyte incubation medium and 10 μL of the appropriate concentration of the compound in hepatocyte incubation medium were added Immediately following the compound addition, 300 μL of the stop solution (see above) was added.
All quenched samples were kept on wet ice until they were processed for analysis. Then they were mixed using a bench top Multi-Tube Vortexer (VWR Scientific Products) for approximately 30 seconds, and centrifuged at 4,000 rpm (3,220 rcf) for 10 minutes at 4° C. Clear supernatant (100 μl) was transferred into a clean deep well 96-well plate, evaporated to dryness under nitrogen, reconstituted in 100 μL of 90:10 water:acetonitrile, and analyzed for the parent form and metabolites of the test article using an appropriate LC/MS/MS method.
The compounds were quantified on an API3000 LC/MS/MS instrument in the ESI-Positive MRM (multiple reaction monitoring) mode.

| SMILES | Metabolism to the corresponding 6-oxy metabolite |
| --- | --- |
| C=C1[C@@H](O)[C@H](n2c(=O)sc3cnc(N)nc32)O[C@@H]1CO [Compound 76, 5-Amino-3-(3′-deoxy-3′-methylidene-β-D-ribofuranosyl)-3H-thiazolo[4,5-d]pyrimidin-2-one] | metabolized to yield the corresponding 6-oxy metabolites |
| CC(=O)O[C@@H]1C[C@@H](CO)O[C@H]1n1c(=O)sc2cnc(N)nc21 [Compound 15, 5-Amino-3-(2′-O-acetyl-3′-deoxy-β-D-ribofuranosyl)-3H-thiazolo[4,5-d]pyrimidin-2-one] | metabolized to yield the corresponding 6-oxy metabolites |
| Nc1ncc2sc(=O)n(C3O[C@H](CO)[C@@H](CO)[C@H]3O)c2n1 (stereo partly drawn) [Compound 65, (3′S)-5-Amino-3-(3′-deoxy-3′-hydroxymethyl-β-D-ribofuranosyl)-3H-thiazolo[4,5-d]pyrimidin-2-one] | metabolized to yield the corresponding 6-oxy metabolites |
| CC(=O)OCC(CCn1cnc2cnc(N)nc21)COC(C)=O [Famciclovir, reference compound] | metabolized to yield the corresponding 6-oxy metabolites |
| CC(=O)OC[C@H]1O[C@@H](n2c(=O)sc3cnc(N)nc32)[C@H](OC(C)=O)[C@H]1OC(C)=O [Compound 114, 5-Amino-3-(2′,3′,5′-tri-O-acetyl-β-D-xylofuranosyl)-3H-thiazolo[4,5-d]pyrimidin-2-one] | metabolized to yield the corresponding 6-oxy metabolites |
| CC(=O)OC[C@H]1O[C@@H](n2c(=O)sc3cnc(N)nc32)[C@H](OC(C)=O)[C@@]1(C)OC(C)=O [Compound 103, 5-Amino-3-(3′-methyl, 2′,3′,5′-tri-O-acetyl-β-D-xylofuranosyl)-3H-thiazolo[4,5-d]pyrimidin-2-one] | metabolized to yield the corresponding 6-oxy metabolites |
| C[C@@]1(O)[C@@H](CO)O[C@@H](n2c(=O)sc3cnc(N)nc32)[C@@H]1O [Compound 30, 5-Amino-3-(3′-methyl-β-D-ribofuransyl)-3H-thiazolo[4,5-d]pyrimidin-2-one] | metabolized to yield the corresponding 6-oxy metabolites |
| CC(=O)OC[C@@H]1C[C@@H](OC(C)=O)[C@H](n2c(=O)sc3cnc(N)nc32)O1 [Compound 14, 5-Amino-3-(2′,5′-di-O-acetyl-3′-deoxy-β-D-ribofuranosyl)-3H-thiazolo[4,5-d]pyrimidin-2-one] | metabolized to yield the corresponding 6-oxy metabolites |
| CC(=O)OCC[C@H]1O[C@@H](n2c(=O)sc3cnc(N)nc32)[C@H](OC(C)=O)[C@@H]1OC(C)=O [Compound 67, 5-Amino-3-(5′-O-acetoxymethyl-2′,3′-di-O-acetyl-5′-deoxy-β-D-ribofuranosyl)-3H-thiazolo[4,5-d]pyrimidin-2-one] | metabolized to yield the corresponding 6-oxy metabolites |
| Nc1ncc2sc(=O)n([C@@H]3O[C@H](CO)C[C@H]3O)c2n1 [Compound 13, 5-Amino-3-(3′-deoxy-β-D-ribofuranosyl)-3H-thiazolo[4,5-d]pyrimidin-2-one] | metabolized to yield the corresponding 6-oxy metabolites |
